Experimental findings from patent US20250059188A1, “ARYLSULPHONAMIDE COMPOUNDS” (Anaxis Pharma Pty Ltd, priority 2021, published 2025) are described below.

What all share (settings): equilibrium dissociation constant
For one experiment, the target named is human MLKL (full length) (Homo sapiens (Human), UniProt Q8NB16). Put plainly: KINOMEscan binding assay, human MLKL (full length). Here is the method: (§1) Binding affinity of the test compounds for human MLKL (full length), mouse MLKL (full length), human RIPK1 and human RIPK3 was determined using the KINOMEscan™ technology developed by DiscoverX (USA; http://www.discoverx.com). The assay was conducted according to manufacturer instructions.
Chain of human MLKL (full length) (Q8NB16 whole entry): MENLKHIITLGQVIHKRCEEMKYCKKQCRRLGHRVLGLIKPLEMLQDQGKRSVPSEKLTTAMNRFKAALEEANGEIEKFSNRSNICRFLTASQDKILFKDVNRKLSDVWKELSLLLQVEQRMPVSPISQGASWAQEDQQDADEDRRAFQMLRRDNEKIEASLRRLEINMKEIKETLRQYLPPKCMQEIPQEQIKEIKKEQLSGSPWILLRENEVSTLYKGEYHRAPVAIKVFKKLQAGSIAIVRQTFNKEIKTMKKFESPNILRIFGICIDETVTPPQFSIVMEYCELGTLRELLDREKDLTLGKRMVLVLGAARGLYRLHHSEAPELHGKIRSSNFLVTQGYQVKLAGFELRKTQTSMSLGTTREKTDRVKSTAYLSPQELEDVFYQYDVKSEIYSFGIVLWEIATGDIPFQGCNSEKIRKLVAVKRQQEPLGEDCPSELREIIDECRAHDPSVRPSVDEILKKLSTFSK
(§2) Kinase assays. For most assays, kinase-tagged T7 phage strains were grown in parallel in 24-well blocks in an E. coli host derived from the BL21 strain. E. coli were grown to log-phase and infected with T7 phage from a frozen stock (multiplicity of infection=0.4) and incubated with shaking at 32° C. until lysis (90-150 minutes). The lysates were centrifuged (6,000×g) and filtered (0.2 μm) to remove cell debris. The remaining kinases were produced in HEK-293 cells and subsequently tagged with DNA for qPCR detection. […] The liganded beads were blocked with excess biotin and washed with blocking buffer (SeaBlock (Pierce), 1% BSA, 0.05% Tween 20, 1 mM DTT) to remove unbound ligand and to reduce non-specific phage binding. […] All reactions were performed in polypropylene 384-well plates in a final volume of 20 μL. […] The kinase concentration in the eluates was measured by qPCR.
(§3) An 11-point 3-fold serial dilution of each test compound was prepared in 100% DMSO at 100× final test concentration and subsequently diluted to 1× in the assay (final DMSO concentration=1%). Most Kos were determined using a compound top concentration=30,000 nM.
(§4) KD for each test compound was calculated with a standard dose-response curve using the Hill equation (equation (1)): […]
(§5) The Hill Slope was set to −1.
(§6) Curves were fitted using a non-linear least square fit with the Levenberg-Marquardt algorithm.

The target in another experiment is human RIPK3 (Homo sapiens (Human), UniProt Q9Y572). Put plainly: KINOMEscan binding assay, human RIPK3. The method, then:
as §1, §2, §3, §4, §5, §6

Another experiment concerns the target human RIPK1 (Homo sapiens (Human), UniProt Q13546). The experiment in a line: KINOMEscan binding assay, human RIPK1. Here is the method:
as §1, §2, §3, §4, §5, §6

Chain of human RIPK3 (Q9Y572 whole entry): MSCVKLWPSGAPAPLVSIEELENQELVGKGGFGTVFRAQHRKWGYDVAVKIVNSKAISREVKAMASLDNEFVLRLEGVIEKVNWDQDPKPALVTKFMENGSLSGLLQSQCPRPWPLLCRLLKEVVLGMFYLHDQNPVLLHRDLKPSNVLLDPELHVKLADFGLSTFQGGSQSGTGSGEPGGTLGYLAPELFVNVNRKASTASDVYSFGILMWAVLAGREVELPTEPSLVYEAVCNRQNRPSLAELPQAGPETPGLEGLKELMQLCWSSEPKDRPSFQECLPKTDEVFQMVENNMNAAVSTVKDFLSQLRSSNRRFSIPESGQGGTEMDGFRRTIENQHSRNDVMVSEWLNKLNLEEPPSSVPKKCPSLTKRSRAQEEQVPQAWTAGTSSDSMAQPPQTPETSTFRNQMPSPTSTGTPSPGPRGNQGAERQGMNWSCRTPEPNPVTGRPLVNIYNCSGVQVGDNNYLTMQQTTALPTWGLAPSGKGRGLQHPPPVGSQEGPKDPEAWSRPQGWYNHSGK
Chain of human RIPK1 (Q13546 whole entry): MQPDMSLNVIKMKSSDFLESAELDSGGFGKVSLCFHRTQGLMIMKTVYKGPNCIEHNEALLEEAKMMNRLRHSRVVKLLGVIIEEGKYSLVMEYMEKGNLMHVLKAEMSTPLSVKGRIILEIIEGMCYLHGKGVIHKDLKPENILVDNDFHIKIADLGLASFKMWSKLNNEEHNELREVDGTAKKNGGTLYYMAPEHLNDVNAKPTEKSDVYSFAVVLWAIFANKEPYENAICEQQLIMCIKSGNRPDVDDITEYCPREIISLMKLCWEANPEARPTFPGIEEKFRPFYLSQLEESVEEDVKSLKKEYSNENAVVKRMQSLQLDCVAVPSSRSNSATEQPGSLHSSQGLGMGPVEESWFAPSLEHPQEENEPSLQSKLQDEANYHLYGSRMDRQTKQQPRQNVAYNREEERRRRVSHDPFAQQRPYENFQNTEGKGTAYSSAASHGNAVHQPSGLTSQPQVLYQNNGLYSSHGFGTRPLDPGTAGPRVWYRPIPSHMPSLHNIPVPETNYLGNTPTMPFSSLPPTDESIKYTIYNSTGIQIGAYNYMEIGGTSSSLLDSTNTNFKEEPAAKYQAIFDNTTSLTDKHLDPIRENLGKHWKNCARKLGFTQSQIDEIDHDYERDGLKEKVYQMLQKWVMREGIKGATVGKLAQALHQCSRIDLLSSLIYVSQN

On to `C[C@H](Oc1cc(-c2nn(C)c3c(-c4cnn(C5CCOCC5)c4)cnc(N)c23)ccc1NS(=O)(=O)N(C)C)c1ccc(F)cc1` [Compound 124], for which the Kd on human MLKL (full length) was 0.1 to 10 µM; on human RIPK3 it was greater than 10 µM; on human RIPK1, greater than 10 µM.

With `C[C@H](Oc1cc(-c2cnn3ccnc(N)c23)ccc1NS(=O)(=O)C(F)F)c1ccc(F)cc1` [Compound 22, (S)—N-(4-(4-aminopyrazolo[1,5-a]pyrazin-3-yl)-2-(1-(4-fluorophenyl)ethoxy)phenyl)-1,1-difluoromethanesulfonamide], the Kd at human MLKL (full length) was less than 0.001 µM; on human RIPK3, greater than 10 µM; at human RIPK1, greater than 10 µM.

In the case of `CCS(=O)(=O)Nc1ccc(-c2cnn3ccnc(N)c23)cc1OCc1ccc(F)cc1` [Compound 64, N-(4-(4-Aminopyrazolo[1,5-a]pyrazin-3-yl)-2-((4-fluorophenyl)methoxy)phenyl)ethane-1-sulfonamide], the Kd on human MLKL (full length) is 0.1 to 10 µM; on human RIPK3, greater than 10 µM; on human RIPK1, greater than 10 µM.

`CCS(=O)(=O)Nc1ccc(-c2ncn3ccnc(N)c23)cc1OCc1ccc(F)cc1` [Compound 63, N-(4-(8-Aminoimidazo[1,5-a]pyrazin-1-yl)-2-((4-fluorophenyl)methoxy)phenyl) ethane-1-sulfonamide]: the Kd at human MLKL (full length) is 0.1 to 10 µM; at human RIPK3 it was greater than 10 µM; on human RIPK1 it was greater than 10 µM.

Consider `C[C@H](Oc1cc(-c2nn(C)c3c(-c4cnn5c4CN(C)CC5)cnc(N)c23)ccc1NS(=O)(=O)C(F)F)c1ccc(F)cc1` [Compound 91, (S)—N-(4-(4-amino-1-methyl-7-(5-methyl-4,5,6,7-tetrahydropyrazolo[1,5-a]pyrazin-3-yl)-1H-pyrazolo[4,3-c]pyridin-3-yl)-2-(1-(4-fluorophenyl)ethoxy)phenyl)-1,1-difluoromethanesulfonamide], for which the Kd on human MLKL (full length) was 0.1 to 10 µM; on human RIPK3 it was greater than 10 µM; on human RIPK1 it was greater than 10 µM.

For the compound `CC(C)Oc1cc(-c2nn(C)c3c(-c4cnn(C5CCOCC5)c4)cnc(N)c23)ccc1NS(=O)(=O)C(F)F` [Compound 144, N-(4-(4-amino-1-methyl-7-(1-(tetrahydro-2H-pyran-4-yl)-1H-pyrazol-4-yl)-1H-pyrazolo[4,3-c]pyridin-3-yl)-2-isopropoxyphenyl)-1,1-difluoromethanesulfonamide], the Kd at human MLKL (full length) was less than 0.001 µM; on human RIPK3, greater than 10 µM; on human RIPK1, greater than 10 µM.

On to `C[C@H](Oc1cc(-c2nn(C)c3c(-c4cnc(N5CCCC5)nc4)cnc(N)c23)ccc1NS(=O)(=O)C(F)F)c1ccc(F)cc1` [Compound 114, (S)-N-(4-(4-amino-1-methyl-7-(2-(pyrrolidin-1-yl)pyrimidin-5-yl)-1H-pyrazolo[4,3-c]pyridin-3-yl)-2-(1-(4-fluorophenyl)ethoxy)phenyl)-1,1-difluoromethanesulfonamide], for which the Kd on human MLKL (full length) was 0.001 to 0.1 µM; on human RIPK3 it was greater than 10 µM; at human RIPK1, greater than 10 µM.

In the case of `Nc1n[nH]c2ccnc(-c3ccc(NS(=O)(=O)CC(F)(F)F)c(OCc4ccc(F)cc4)c3)c12` [Compound 65, N-(4-(3-amino-1H-pyrazolo[4,3-c]pyridin-4-yl)-2-((4-fluorophenyl)methoxy)phenyl)-2,2,2-trifluoroethane-1-sulfonamide], the Kd on human MLKL (full length) is 0.001 to 0.1 µM; at human RIPK3 it was greater than 10 µM; on human RIPK1, greater than 10 µM.

As to `Cn1nc(-c2ccc(NS(=O)(=O)C(F)F)c(OCc3nccs3)c2)c2c(N)ncc(-c3cnn(C4CCOCC4)c3)c21` [Compound 143, N-(4-(4-amino-1-methyl-7-(1-(tetrahydro-2H-pyran-4-yl)-1H-pyrazol-4-yl)-1H-pyrazolo[4,3-c]pyridin-3-yl)-2-(thiazol-2-ylmethoxy)phenyl)-1,1-difluoromethanesulfonamide], the results for the Kd at human MLKL (full length), on human RIPK3 and at human RIPK1 were less than 0.001 µM, greater than 10 µM and greater than 10 µM, respectively.

`Cc1noc(C)c1-c1cnc(N)c2c(-c3ccc(NS(=O)(=O)C(F)F)c(O[C@@H](C)c4ccc(F)cc4)c3)nn(C)c12` [Compound 33, (S)-N-(4-(4-amino-7-(3,5-dimethylisoxazol-4-yl)-1-methyl-1H-pyrazolo[4,3-c]pyridin-3-yl)-2-(1-(4-fluorophenyl)ethoxy)phenyl)-1,1-difluoromethanesulfonamide]: the Kd at human MLKL (full length) is 0.001 to 0.1 µM; on human RIPK3 it was greater than 10 µM; at human RIPK1 it was greater than 10 µM.

With `COC[C@@H](Oc1cc(-c2nn(C)c3c(-c4cnn(C5CCOCC5)c4)cnc(N)c23)ccc1NS(=O)(=O)C(F)F)c1ccc(F)cc1` [Compound 112, (S)—N-(4-(4-amino-1-methyl-7-(1-(tetrahydro-2H-pyran-4-yl)-1H-pyrazol-4-yl)-1H-pyrazolo[4,3-c]pyridin-3-yl)-2-(1-(4-fluorophenyl)-2-methoxyethoxy)phenyl)-1,1-difluoromethanesulfonamide], the figures for the Kd on human MLKL (full length), on human RIPK3 and at human RIPK1 were 0.001 to 0.1 µM, greater than 10 µM and greater than 10 µM, respectively.

Turning to `Cn1nc(-c2ccc(NS(=O)(=O)C(F)F)c(OCc3cccc(Cl)c3)c2)c2c(N)ncc(-c3cnn(C4CCOCC4)c3)c21` [Compound 130, N-(4-(4-amino-1-methyl-7-(1-(tetrahydro-2H-pyran-4-yl)-1H-pyrazol-4-yl)-1H-pyrazolo[4,3-c]pyridin-3-yl)-2-((3-chlorobenzyl)oxy)phenyl)-1,1-difluoromethanesulfonamide], the Kd at human MLKL (full length) was less than 0.001 µM; at human RIPK3, greater than 10 µM; on human RIPK1, greater than 10 µM.

Consider `C[C@H](Oc1cc(-c2nn(C)c3c(-c4cnn(C5CCOCC5)c4)cnc(N)c23)ccc1NS(=O)(=O)Cc1ccccc1)c1ccc(F)cc1` [Compound 127, (S)-N-(4-(4-amino-1-methyl-7-(1-(tetrahydro-2H-pyran-4-yl)-1H-pyrazol-4-yl)-1H-pyrazolo[4,3-c]pyridin-3-yl)-2-(1-(4-fluorophenyl)ethoxy)phenyl)-1-phenylmethanesulfonamide], for which, on human MLKL (full length), the Kd was in the range of 0.001 to 0.1 µM.

On to `Cn1nc(-c2ccc(NS(=O)(=O)C(F)F)c(OCc3ccc(F)cc3)c2)c2c(N)nccc21` [Compound 10, N-(4-{4-amino-1-methyl-1H-pyrazolo[4,3-c]pyridin-3-yl}-2-[(4-fluorophenyl)methoxy]phenyl)-1,1-difluoromethanesulfonamide], for which the dissociation constant (Kd) at human MLKL (full length) is 0.001 to 0.1 µM; on human RIPK3 it was greater than 10 µM; at human RIPK1, greater than 10 µM.

Take `C[C@H](Oc1cc(-c2nn(C)c3c(C4=CCCNC4)cnc(N)c23)ccc1NS(=O)(=O)C(F)F)c1ccc(F)cc1` [Compound 54, (S)—N-(4-(4-amino-1-methyl-7-(1,2,5,6-tetrahydropyridin-3-yl)-1H-pyrazolo[4,3-c]pyridin-3-yl)-2-(1-(4-fluorophenyl)ethoxy)phenyl)-1,1-difluoromethanesulfonamide]: the Kd on human MLKL (full length) is 0.001 to 0.1 µM; on human RIPK3 it was greater than 10 µM; on human RIPK1, greater than 10 µM.

Take `C[C@H](Oc1cc(-c2nn(C)c3c(-c4cnn(C5CCOCC5)c4)cnc(N)c23)ccc1NS(=O)(=O)C(F)F)c1ccccc1F` [Compound 118, (S)-N-(4-(4-amino-1-methyl-7-(1-(tetrahydro-2H-pyran-4-yl)-1H-pyrazol-4-yl)-1H-pyrazolo[4,3-c]pyridin-3-yl)-2-(1-(2-fluorophenyl)ethoxy)phenyl)-1,1-difluoromethanesulfonamide]: the Kd at human MLKL (full length) was 0.001 to 0.1 µM; at human RIPK3 it was greater than 10 µM; at human RIPK1, greater than 10 µM.

Consider `CCS(=O)(=O)Nc1ccc(-c2coc3c(-c4cnn(CCO)c4)cnc(N)c23)cc1OCc1ccc(F)cc1` [Compound 4, N-(4-(4-amino-7-(1-(2-hydroxyethyl)-1H-pyrazol-4-yl)furo[3,2-c]pyridin-3-yl)-2-((4-fluorobenzyl)oxy)phenyl)ethanesulfonamide], for which the Kd on human MLKL (full length) is 0.001 to 0.1 µM; at human RIPK3 it was greater than 10 µM; at human RIPK1, greater than 10 µM.

Take `Nc1ncc(-c2cnn(CCO)c2)c2occ(-c3ccc(NS(=O)(=O)C(F)F)c(OCc4ccc(F)cc4)c3)c12` [Compound 6, N-(4-(4-amino-7-(1-(2-hydroxyethyl)-1H-pyrazol-4-yl)furo[3,2-c]pyridin-3-yl)-2-((4-fluorobenzyl)oxy)phenyl)-1,1-difluoromethanesulfonamide]: the Kd on human MLKL (full length) is less than 0.001 µM; at human RIPK3, greater than 10 µM; at human RIPK1 it was greater than 10 µM.

As to `Nc1n[nH]c2ccnc(-c3ccc(NS(=O)(=O)C(F)F)c(OCc4ccc(F)cc4)c3)c12` [Compound 68, N-(4-(3-amino-1H-pyrazolo[4,3-c]pyridin-4-yl)-2-((4-fluorophenyl)methoxy)phenyl)-1,1-difluoromethanesulfonamide], the figures for the Kd at human MLKL (full length), at human RIPK3 and at human RIPK1 were 0.1 to 10 µM, greater than 10 µM and greater than 10 µM, respectively.

As to `C[C@H](Oc1cc(-c2nn(C)c3c(-c4cnc(N5CCOCC5)nc4)cnc(N)c23)ccc1NS(=O)(=O)C(F)F)c1ccc(F)cc1` [Compound 110, (S)-N-(4-(4-amino-1-methyl-7-(2-morpholinopyrimidin-5-yl)-1H-pyrazolo[4,3-c]pyridin-3-yl)-2-(1-(4-fluorophenyl)ethoxy)phenyl)-1,1-difluoromethanesulfonamide], the results for the Kd at human MLKL (full length), on human RIPK3 and on human RIPK1 were less than 0.001 µM, greater than 10 µM and greater than 10 µM, respectively.
